Experimental findings from ChEMBL document CHEMBL1817560, “Selectivity of kinase inhibitor fragments” (J Med Chem, 2011) are described below.

The target of assay [1] is T1, Mitogen-activated protein kinase kinase kinase 5 (Homo sapiens) (UniProt Q99683).
T1 sequence (whole entry): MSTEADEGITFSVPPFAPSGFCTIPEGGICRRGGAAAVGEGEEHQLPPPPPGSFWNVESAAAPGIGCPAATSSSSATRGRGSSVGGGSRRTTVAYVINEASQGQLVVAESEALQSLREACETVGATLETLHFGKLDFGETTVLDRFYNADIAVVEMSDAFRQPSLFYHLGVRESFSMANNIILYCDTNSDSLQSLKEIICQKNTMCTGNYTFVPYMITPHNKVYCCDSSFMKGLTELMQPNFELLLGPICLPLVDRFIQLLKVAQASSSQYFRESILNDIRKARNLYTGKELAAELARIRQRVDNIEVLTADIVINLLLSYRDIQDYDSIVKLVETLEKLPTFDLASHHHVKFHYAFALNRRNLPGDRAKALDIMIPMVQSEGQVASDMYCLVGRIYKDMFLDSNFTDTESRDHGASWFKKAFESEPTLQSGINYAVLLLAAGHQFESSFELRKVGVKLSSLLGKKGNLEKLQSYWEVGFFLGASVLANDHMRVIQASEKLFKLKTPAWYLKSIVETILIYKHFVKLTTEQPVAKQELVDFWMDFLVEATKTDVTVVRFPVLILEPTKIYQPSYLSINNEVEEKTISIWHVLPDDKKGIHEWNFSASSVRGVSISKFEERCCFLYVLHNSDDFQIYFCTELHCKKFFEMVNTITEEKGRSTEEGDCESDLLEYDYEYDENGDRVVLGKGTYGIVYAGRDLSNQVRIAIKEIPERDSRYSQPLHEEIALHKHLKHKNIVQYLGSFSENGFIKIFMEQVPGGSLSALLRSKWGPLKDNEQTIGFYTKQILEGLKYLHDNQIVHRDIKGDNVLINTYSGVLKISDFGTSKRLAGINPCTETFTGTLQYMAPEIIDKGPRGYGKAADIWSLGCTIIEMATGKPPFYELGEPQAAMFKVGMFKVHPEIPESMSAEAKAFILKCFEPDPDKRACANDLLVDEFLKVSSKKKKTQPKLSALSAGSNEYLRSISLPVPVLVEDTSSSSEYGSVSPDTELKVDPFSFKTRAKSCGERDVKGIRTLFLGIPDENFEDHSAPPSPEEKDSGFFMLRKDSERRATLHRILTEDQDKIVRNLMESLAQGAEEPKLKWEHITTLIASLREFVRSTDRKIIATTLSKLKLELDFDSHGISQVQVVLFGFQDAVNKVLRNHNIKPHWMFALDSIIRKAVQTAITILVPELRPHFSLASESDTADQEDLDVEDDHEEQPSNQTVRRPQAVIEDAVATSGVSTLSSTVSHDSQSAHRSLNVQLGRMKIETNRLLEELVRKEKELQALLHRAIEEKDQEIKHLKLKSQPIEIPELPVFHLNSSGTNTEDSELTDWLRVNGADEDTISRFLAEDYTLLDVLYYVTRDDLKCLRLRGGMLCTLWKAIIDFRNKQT
In words: Inhibition of ASK1 expressed in Escherichia coli or baculovirus-infected insect cells at 667 uM by IMAP assay.

Assay [2] has as its target Tyrosine-protein kinase Fes/Fps (Homo sapiens) (UniProt P07332). The experiment in a line: Inhibition of FES expressed in Escherichia coli or baculovirus-infected insect cells using ATP as substrate at 400 uM by fluorescence polarization assay.
Assay [3] concerns the target Receptor tyrosine-protein kinase erbB-4 (Homo sapiens) (UniProt Q15303). In words: Inhibition of ErbB4 expressed in Escherichia coli or baculovirus-infected insect cells at 400 to 667 uM by TR-FRET assay. For orientation: In TR-FRET formats the signal depends on donor and acceptor labels being close together.
Assay [4] concerns the target Glycogen synthase kinase-3 beta (Homo sapiens) (UniProt P49841). The experiment in a line: Inhibition of GSK3-beta expressed in Escherichia coli or baculovirus-infected insect cells using ATP as substrate at 667 uM by fluorescence polarization assay. Background: In fluorescence polarisation assays a small probe gives low polarisation when free and higher when bound to something large.

Assay [5] deals with T2, Tyrosine-protein kinase JAK3 (Homo sapiens) (UniProt P52333).
T2 sequence (whole entry): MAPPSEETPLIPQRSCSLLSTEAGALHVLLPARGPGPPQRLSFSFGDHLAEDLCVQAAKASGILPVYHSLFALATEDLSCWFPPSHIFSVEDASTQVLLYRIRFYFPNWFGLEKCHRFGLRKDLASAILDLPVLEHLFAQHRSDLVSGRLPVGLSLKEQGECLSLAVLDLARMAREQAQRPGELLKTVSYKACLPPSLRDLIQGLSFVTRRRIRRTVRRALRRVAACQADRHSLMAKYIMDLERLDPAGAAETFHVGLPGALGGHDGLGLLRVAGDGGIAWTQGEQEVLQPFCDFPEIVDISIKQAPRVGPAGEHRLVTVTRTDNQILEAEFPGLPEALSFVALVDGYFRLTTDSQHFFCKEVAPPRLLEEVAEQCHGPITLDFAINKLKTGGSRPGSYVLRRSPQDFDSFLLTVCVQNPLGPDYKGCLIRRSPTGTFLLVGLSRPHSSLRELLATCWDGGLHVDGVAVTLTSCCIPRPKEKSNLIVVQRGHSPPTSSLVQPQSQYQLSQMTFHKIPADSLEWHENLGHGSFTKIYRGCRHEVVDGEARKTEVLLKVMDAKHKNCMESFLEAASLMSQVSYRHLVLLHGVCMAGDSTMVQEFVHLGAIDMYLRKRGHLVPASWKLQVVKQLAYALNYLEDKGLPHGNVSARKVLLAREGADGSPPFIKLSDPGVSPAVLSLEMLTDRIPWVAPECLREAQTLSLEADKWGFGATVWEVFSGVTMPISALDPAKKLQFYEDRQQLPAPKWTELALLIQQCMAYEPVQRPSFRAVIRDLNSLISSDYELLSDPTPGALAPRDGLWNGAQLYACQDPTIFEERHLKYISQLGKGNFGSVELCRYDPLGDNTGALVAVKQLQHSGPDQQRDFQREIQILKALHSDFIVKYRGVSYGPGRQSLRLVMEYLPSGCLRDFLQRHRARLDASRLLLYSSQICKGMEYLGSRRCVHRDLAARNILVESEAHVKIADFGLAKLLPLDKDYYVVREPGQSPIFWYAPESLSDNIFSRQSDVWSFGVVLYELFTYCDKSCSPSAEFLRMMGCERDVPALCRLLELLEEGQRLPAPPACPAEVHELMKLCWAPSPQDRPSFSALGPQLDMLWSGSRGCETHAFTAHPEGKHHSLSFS
The experiment in a line: Inhibition of JAK3 expressed in Escherichia coli or baculovirus-infected insect cells at 667 uM by TR-FRET assay.

The target in assay [6] is MAP kinase-activated protein kinase 2 (Homo sapiens) (UniProt P49137). In words: Inhibition of MK2 expressed in Escherichia coli or baculovirus-infected insect cells at 667 uM by IMAP assay.
MAP kinase-activated protein kinase 2 (Homo sapiens), sequence (P49137 whole entry, looked up): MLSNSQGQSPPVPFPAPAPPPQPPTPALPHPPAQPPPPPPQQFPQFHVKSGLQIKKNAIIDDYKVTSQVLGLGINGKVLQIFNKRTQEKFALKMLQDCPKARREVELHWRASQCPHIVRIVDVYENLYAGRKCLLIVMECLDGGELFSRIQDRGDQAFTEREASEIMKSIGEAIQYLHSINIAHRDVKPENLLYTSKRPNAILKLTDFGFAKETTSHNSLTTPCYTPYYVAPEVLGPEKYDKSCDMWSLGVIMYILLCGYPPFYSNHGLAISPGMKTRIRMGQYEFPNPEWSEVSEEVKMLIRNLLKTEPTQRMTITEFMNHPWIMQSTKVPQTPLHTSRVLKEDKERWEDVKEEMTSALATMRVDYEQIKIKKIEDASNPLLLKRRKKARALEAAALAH
For assay [7], the target named is Serine/threonine-protein kinase PAK 2 (Homo sapiens) (UniProt Q13177). The experiment in a line: Inhibition of PAK2 expressed in Escherichia coli or baculovirus-infected insect cells at 400 uM by IMAP assay.
Serine/threonine-protein kinase PAK 2 (Homo sapiens), sequence (Q13177 whole entry): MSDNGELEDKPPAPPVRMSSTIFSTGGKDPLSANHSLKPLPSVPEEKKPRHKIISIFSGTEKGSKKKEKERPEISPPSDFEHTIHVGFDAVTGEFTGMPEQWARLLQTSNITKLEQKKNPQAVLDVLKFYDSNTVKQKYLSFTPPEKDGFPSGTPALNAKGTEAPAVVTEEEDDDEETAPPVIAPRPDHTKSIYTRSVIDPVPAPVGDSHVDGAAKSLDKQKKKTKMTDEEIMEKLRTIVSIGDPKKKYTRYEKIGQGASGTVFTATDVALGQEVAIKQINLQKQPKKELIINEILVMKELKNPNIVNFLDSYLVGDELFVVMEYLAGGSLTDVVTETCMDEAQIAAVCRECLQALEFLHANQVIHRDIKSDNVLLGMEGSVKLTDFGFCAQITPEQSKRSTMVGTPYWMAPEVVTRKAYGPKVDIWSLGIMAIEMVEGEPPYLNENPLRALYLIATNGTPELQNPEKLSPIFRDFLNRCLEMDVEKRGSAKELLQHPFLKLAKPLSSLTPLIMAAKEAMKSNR
The target of assay [8] is Tyrosine-protein kinase SYK (Homo sapiens, UniProt P43405). The experiment in a line: Inhibition of SYK expressed in Escherichia coli or baculovirus-infected insect cells at 667 uM by TR-FRET assay.

Tyrosine-protein kinase Fes/Fps (Homo sapiens), sequence (P07332 whole entry): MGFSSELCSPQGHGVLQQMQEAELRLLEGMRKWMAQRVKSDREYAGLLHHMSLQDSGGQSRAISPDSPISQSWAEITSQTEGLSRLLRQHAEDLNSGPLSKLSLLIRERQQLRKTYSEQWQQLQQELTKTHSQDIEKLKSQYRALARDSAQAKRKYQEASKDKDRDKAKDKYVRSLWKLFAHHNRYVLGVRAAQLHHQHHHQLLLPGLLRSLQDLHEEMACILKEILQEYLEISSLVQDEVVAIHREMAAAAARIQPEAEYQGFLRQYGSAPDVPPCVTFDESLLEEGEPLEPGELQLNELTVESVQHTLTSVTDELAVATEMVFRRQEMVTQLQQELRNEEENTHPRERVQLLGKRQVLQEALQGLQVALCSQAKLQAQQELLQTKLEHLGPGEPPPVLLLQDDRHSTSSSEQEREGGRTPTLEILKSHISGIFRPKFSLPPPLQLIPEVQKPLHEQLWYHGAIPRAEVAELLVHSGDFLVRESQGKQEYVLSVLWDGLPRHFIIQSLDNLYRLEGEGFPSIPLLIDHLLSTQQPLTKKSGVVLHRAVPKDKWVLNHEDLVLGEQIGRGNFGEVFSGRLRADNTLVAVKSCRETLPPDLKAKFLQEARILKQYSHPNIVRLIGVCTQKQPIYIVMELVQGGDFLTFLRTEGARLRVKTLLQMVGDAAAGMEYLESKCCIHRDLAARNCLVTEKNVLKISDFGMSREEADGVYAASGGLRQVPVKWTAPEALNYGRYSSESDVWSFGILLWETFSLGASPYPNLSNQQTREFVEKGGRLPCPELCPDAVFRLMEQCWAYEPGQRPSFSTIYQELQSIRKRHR
Glycogen synthase kinase-3 beta (Homo sapiens), sequence (P49841 whole entry, looked up): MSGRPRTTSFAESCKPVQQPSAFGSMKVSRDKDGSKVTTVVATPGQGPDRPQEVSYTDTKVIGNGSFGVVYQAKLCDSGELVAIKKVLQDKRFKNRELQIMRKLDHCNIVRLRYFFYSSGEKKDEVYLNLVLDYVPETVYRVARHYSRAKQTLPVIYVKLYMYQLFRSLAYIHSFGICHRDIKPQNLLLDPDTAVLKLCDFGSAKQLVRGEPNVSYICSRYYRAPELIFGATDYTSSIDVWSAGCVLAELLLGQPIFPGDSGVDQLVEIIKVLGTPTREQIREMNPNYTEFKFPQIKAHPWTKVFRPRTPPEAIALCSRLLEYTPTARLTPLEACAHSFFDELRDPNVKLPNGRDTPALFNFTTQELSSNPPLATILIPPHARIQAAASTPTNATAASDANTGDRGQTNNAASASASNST
Receptor tyrosine-protein kinase erbB-4 (Homo sapiens), sequence (Q15303 whole entry): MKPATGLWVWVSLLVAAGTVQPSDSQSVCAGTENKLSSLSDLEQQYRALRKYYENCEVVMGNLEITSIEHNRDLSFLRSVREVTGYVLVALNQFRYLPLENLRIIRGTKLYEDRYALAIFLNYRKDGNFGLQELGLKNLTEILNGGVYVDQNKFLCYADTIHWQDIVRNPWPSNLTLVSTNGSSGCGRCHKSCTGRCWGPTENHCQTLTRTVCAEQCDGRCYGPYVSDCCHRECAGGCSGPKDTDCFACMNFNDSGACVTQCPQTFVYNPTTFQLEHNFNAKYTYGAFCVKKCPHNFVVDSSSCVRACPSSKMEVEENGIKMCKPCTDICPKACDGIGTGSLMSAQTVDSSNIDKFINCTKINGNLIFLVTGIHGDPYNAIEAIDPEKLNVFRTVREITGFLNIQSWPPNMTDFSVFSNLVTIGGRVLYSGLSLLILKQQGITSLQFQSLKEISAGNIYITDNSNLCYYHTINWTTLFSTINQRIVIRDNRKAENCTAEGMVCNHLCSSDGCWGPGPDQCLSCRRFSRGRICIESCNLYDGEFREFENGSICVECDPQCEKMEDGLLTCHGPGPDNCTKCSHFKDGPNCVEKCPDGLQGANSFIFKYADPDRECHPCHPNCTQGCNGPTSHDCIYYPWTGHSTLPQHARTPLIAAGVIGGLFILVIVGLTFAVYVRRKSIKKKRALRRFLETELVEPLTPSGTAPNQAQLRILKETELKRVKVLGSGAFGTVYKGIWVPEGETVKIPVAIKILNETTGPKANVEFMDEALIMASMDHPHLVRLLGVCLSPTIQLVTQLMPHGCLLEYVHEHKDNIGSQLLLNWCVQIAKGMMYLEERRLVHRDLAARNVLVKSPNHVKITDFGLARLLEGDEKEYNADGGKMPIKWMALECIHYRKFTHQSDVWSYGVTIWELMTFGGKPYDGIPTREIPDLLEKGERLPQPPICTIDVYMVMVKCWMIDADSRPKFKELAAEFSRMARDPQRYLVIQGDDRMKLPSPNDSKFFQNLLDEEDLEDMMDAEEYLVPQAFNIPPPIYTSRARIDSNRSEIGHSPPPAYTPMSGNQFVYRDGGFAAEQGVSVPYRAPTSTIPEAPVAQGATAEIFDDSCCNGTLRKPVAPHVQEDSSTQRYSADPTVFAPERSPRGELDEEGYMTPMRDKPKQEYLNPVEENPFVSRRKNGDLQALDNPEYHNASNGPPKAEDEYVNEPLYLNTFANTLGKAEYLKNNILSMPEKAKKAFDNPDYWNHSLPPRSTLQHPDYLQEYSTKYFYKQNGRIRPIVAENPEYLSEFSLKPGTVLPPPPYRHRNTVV

One may read the inhibition as the relative decrease from the control value, in per cent. High values mean a strong effect, low ones a weak effect. On to `CC(C)(C)c1cc(NC(=O)Nc2ccccc2)no1`, for which the inhibition in assay [1] was 3%; in assay [2], 3%; in assay [3], 0%; in assay [4] it was 19%; in assay [5] it was 0%; in assay [6], 28%. Moreover, the inhibition amounted to 0% in assay [7] and 20% in assay [8].
As to `Nc1ncccc1OCc1ccccc1`, the inhibition in assay [1] is 39%; in assay [2], 100%; in assay [3], 17%; in assay [4] it was 92%; in assay [5], 54%; in assay [6], 54%. Besides, the inhibition in assay [7] is 17%; in assay [8], 51%.
`Cc1ccc(C(=O)NC2CC2)cc1F`: the inhibition amounted to 9% in assay [1]; 1% in assay [2]; 0% in assay [3]; 23% in assay [4]; 0% in assay [5]; 8% in assay [6]. Besides, the inhibition came to 2% in assay [7] and 6% in assay [8].
Turning to `O=C(Nc1ccccc1)Nc1cccc(C(F)(F)F)c1`, the inhibition is 0% in assay [1]; 6% in assay [2]; 0% in assay [3]; 19% in assay [4]; 0% in assay [5]; 16% in assay [6]. For the same compound, the figures for the inhibition in assay [7] and in assay [8] were 5% and 0%, respectively.
Consider `c1ccc(Nc2ncccn2)cc1`, for which the inhibition was found to be 10% in assay [1]; 35% in assay [2]; 15% in assay [3]; 55% in assay [4]; 36% in assay [5]; 24% in assay [6]. The inhibition was found to be 3% in assay [7] and 94% in assay [8].
As for `Cc1ccc(NC(=O)Nc2cc(C(C)(C)C)nn2-c2ccccc2)cc1`, the inhibition was found to be 13% in assay [1]; 3% in assay [2]; 0% in assay [3]; 34% in assay [4]; 0% in assay [5]; 24% in assay [6]. In addition, the inhibition in assay [7] was found to be 0%; in assay [8] it was 3%.
For `Cc1ccc(NC(=O)Nc2cccc(C(F)(F)F)c2)cc1`, the inhibition is 9% in assay [1]; 0% in assay [2]; 0% in assay [3]; 22% in assay [4]; 0% in assay [5]; 13% in assay [6]. In addition, the inhibition in assay [7] and in assay [8] was 0% in each case.
Regarding `Nc1n[nH]c2ncccc12`, the inhibition amounted to 52% in assay [1]; 12% in assay [2]; 13% in assay [3]; 59% in assay [4]; 54% in assay [5]; 47% in assay [6]. Also, the figures for the inhibition in assay [7] and in assay [8] were 7% and 36%, respectively.
In the case of `O=C(Nc1ccccc1)Nc1ccccc1`, the inhibition amounted to 13% in assay [2]; 0% in assay [3]; 11% in assay [4]; 0% in assay [5]; 18% in assay [6]; 5% in assay [7]. Moreover, the inhibition in assay [8] was determined as 87%.
For `c1cnc2[nH]ccc2c1`, the inhibition in assay [2] is 9%; in assay [3] it was 5%; in assay [4] it was 21%; in assay [5], 53%; in assay [7] it was 4%; in assay [8], 27%.
`c1n[nH]c2c1CCCC2`: the inhibition in assay [2] worked out at 14%; in assay [3], 0%; in assay [4] it was 41%; in assay [5] it was 5%; in assay [6], 24%; in assay [7], 3%. This compound also showed an inhibition in assay [8] of 26%.
Take `Nc1[nH]nc2ccccc12`: the inhibition in assay [1] was 80%; in assay [2], 11%; in assay [3], 0%; in assay [4], 34%; in assay [5], 72%; in assay [6], 54%. Besides, the inhibition is 16% in assay [7] and 25% in assay [8].
`Nc1[nH]cnc2ncnc1-2`: the inhibition in assay [1] is 88%; in assay [2], 20%; in assay [3], 9%; in assay [4] it was 57%; in assay [5] it was 78%; in assay [6], 80%. The figures for the inhibition in assay [7] and in assay [8] were 36% and 56%, respectively.
For the compound `c1ccc(-c2cnc3nccnn23)cc1`, the inhibition in assay [1] was found to be 1%; in assay [2], 70%; in assay [3], 0%; in assay [4], 19%; in assay [5], 0%; in assay [6], 0%. Moreover, the inhibition in assay [7] was 0%; in assay [8] it was 15%.
As to `c1ccc(Nc2ccccc2)cc1`, the inhibition is 2% in assay [1]; 9% in assay [2]; 44% in assay [3]; 13% in assay [4]; 2% in assay [5]; 7% in assay [6]. The inhibition in assay [7] was found to be 4%; in assay [8] it was 8%.
Take `c1ccc2[nH]ncc2c1` [INDAZOLE]: the inhibition in assay [1] is 31%; in assay [2] it was 1%; in assay [3], 5%; in assay [4], 35%; in assay [5], 29%; in assay [7], 5%. The inhibition in assay [8] was determined as 21%.
